Patent US10744150B2, “Cyclic dinucleotides as anticancer agents” (BRISTOL-MYERS SQUIBB COMPANY, priority 2017, dated 2020)
Where two headings read alike, the source gives them in different places.

Legend:
[1] = molecular target: T1, STING WT: His-TVMV-S-hSTING(155-341)-H232R (Homo sapiens, UniProt Q86WV6, H232R); assay: STING HTRF binding assay (time resolved FRET competition), STING WT; conditions: 20 nM His-tagged STING cytoplasmic domain, 200 nM fluorescein-labeled cGAMP analog probe, one hour; read-out: HTRF Binding Assays IC50 STING WT
T1 construct: His-TVMV-S-hSTING(155-341)-H232R
Method: (§1) A time resolved FRET-based competition binding assay was used to assess test article binding to STING WT and STING AQ. His-tagged STING cytoplasmic domain (WT or AQ) at a concentration of 20 nM was incubated with 2.5 nM Tb-labeled anti-His antibody, test compound, and fluorescein-labeled cGAMP analog probe (BioLog cat. no. C195) at a concentration of 200 nM (STING WT) or 40 nM (STING AQ) in PBS containing 0.005% Tween-20 and 0.1% BSA for one hour. Fluorescence at 495 nm and 520 nm was measured using an EnVision microplate reader to quantify FRET between Tb-labeled anti-His antibody and fluorescein-labeled probe. Background was defined as the signal obtained in the absence of STING protein, and background subtracted FRET ratios were normalized to the maximum signal obtained in the absence of test compound. These values were converted to a percent inhibition. Percent inhibition was determined for test compounds at 11 concentrations. The IC50, defined as the concentration of competing test compound needed to reduce specific binding of the probe by 50%, was calculated using the 4 parameter logistic equation to fit the data

[2] = molecular target: T2, STING AQ: His-TVMV-S-hSTING(155-341)-G230A-R293Q (Homo sapiens, UniProt Q86WV6, G230A/H232R/R293Q); assay: STING HTRF binding assay (time resolved FRET competition), STING AQ; conditions: 20 nM His-tagged STING cytoplasmic domain, 40 nM fluorescein-labeled cGAMP analog probe, one hour; read-out: HTRF Binding Assays IC50 STING AQ
T2 construct: His-TVMV-S-hSTING(155-341)-G230A-R293Q
Method: as §1

IRF3 = assay: STING THP1 reporter assay, IRF pathway (secreted luciferase Lucia, QUANTI-Luc); assay type: cell-based; conditions: THP1-Dual cells, 10% human plasma, 100% activation = 100 μM cGAMP, luciferase readout, read-out: THP1 Reporter Assays EC50 IRF3
From the text: (§2) THP1-Dual™ cells were derived from the human THP-1 monocyte cell line by stable integration of two inducible reporter constructs. To this end, THP1-Dual™ cells allow the simultaneous study of the NF-κB pathway, by monitoring the activity of SEAP, and the IRF pathway by assessing the activity of a secreted luciferase (Lucia). Both reporter proteins are readily measurable in the cell culture supernatant when using QUANTI-Blue™, a SEAP detection reagent, and QUANTI-Luc™, a luciferase detection reagent.
(§3) THP1-Dual™ cells induce the activation of NF-κB in response to STING agonists. They also trigger the IRF pathway upon stimulation with STING agonists, such as cGAMP. Here, the THP-1-Dual cells were used to assess STING binders for function on the cellular level.
(§4) Serial dilutions of compounds in DMSO were added to low volume 384 well plates at 100 nl/well using an ECHO acoustic dispenser (Labcyte, model 550) to achieve final starting concentration of 100 μM in cell suspension. THP-1 Dual™ STING reporter cells (Invivogen, Dual cells cat # THPD-nfis) were added to the plates with compounds at 15,000 cells in 10 μL per well in RPMI media (Gibco, cat #11875) containing 10% human plasma in a low volume 384-well black wall clear bottom tissue culture plate (Corning, cat #3542) for SEAP assay and low volume solid white plate (Corning, cat #3826) for luciferase assay. One column of the plate was reserved for treatment with cGAMP at 100 μM for 100% activation calculation and one column for no treatment (DMSO only) for baseline activation. Plates were then incubated in 37° C. incubator at 5% CO2 for 20 hours.
(§5) In the SEAP assay, 5 μl of 2× QuantiBlue (Invivogen, cat # Rep-qb2) is added to 384 well black plates seeded with THP1 cells and incubated at 37° C. for 2 hours. Plates were read on the Envision (Perkin Elmer) at 620 nm wavelength (OD620). In the luciferase assay, 5 μl of Quantiluc (Invivogen, Rep-qlc2) is added to white 384 well plates seeded with THP1 cells and read at 5 minutes on the Envision (Perkin Elmer) using a luminescence protocol (RLU). For both cell lines, 100% activation was determined by value (RLU) of THP-1 Dual STING cells stimulated with 100 μM cGAMP (Invivogen, cat # TLRL-NACGA23-5).

NFkB = assay: STING THP1 reporter assay, NF-κB pathway (SEAP, QUANTI-Blue); assay type: cell-based; conditions: THP1-Dual cells, 10% human plasma, 100% activation = 100 μM cGAMP
From the text: as §2, §3, §4, §5

[3] = 20 hours, SEAP readout OD620, read-out: THP1 Reporter Assays EC50 NFkB
[4] = Homo sapiens, THP-1, 20 h, SEAP readout OD620, read-out: THP1 Reporter Assays EC50 NFkB

T1 sequence (Q86WV6 with tags, fused parts or gaps H232R): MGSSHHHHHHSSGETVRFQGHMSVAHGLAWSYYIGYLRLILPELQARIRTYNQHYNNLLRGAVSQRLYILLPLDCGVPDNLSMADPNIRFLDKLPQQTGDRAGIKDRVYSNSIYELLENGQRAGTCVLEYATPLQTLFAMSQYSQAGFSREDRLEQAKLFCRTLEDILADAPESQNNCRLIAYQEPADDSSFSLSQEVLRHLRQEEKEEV
T2 sequence (Q86WV6 with tags, fused parts or gaps G230A/H232R/R293Q): as the sequence (Q86WV6 with tags, fused parts or gaps H232R) above, with G99A, R162Q counted along it

Row | SMILES | IC50 [1] [µM] | IC50 [2] [µM] | EC50 (IRF3; 20 hours) [µM] | EC50 (NFkB; [3]) [µM] | EC50 (IRF3; Homo sapiens, THP-1, 20 h) [µM] | EC50 (NFkB; [4]) [µM]
1 | Nc1ncnc2c1ncn2[C@@H]1O[C@@H]2COP(O)(=S)OC[C@@H]3[C@@H](COP(O)(=S)O[C@H]2[C@H]1F)C[C@H]3n1cnc2c(=O)[nH]cnc21 (single isomer, unassigned) [Example 5-4] | 0.12 | 0.01 | 12 | 91 | – | –
2 | Nc1ncnc2c1ncn2[C@@H]1O[C@@H]2COP(O)(=S)OC[C@@H]3[C@@H](COP(O)(=S)O[C@H]2[C@H]1F)C[C@H]3n1cnc2c(=O)[nH]cnc21 (single isomer, unassigned) [Example 5-3] | 2.7 | 0.04 | > 100 | > 100 | – | –
3 | Nc1ncnc2c1ncn2[C@@H]1C[C@@H]2COP(=O)(O)O[C@H]3[C@@H](F)[C@H](n4cnc5c(N)ncnc54)O[C@@H]3COP(=O)(O)OC[C@H]21 [Example 10, (1R,6S,8R,9R,15R,17R,18R)-8,17-bis(6-amino-9H-purin-9-yl)-18-fluoro-3,12-dihydroxy-2,4,11,13,16-pentaoxa-3λ^5,12λ^5-diphosphatricyclo[13.3.0.0^6,9]octadecane-3,12-dione] | 5.2 | 0.04 | – | – | > 100 | > 100
4 | Nc1ncnc2c1ncn2[C@@H]1C[C@@H]2COP(O)(=S)O[C@@H]3[C@H](O)[C@@H](COP(O)(=S)OC[C@H]21)O[C@H]3n1cnc2c(O)nc3nccn3c21 (single isomer, unassigned) [Example 15-3] | 32.6 | 1.2 | > 100 | > 100 | – | –
5 | O=c1[nH]c2nccn2c2c1ncn2[C@@H]1O[C@@H]2COP(=O)(S)OC[C@@H]3[C@@H](COP(=O)(S)O[C@@H]1[C@@H]2O)C[C@H]3n1cnc2c(O)ncnc21 (single isomer, unassigned) [Example 14-1] | 83 | 4.5 | – | – | > 100 | > 100
6 | NC(=O)c1cccc2c1nnn2[C@@H]1C[C@@H]2COP(O)(=S)O[C@H]3[C@@H](F)[C@H](n4cnc5c(N)ncnc54)O[C@@H]3COP(O)(=S)OC[C@H]21 (single isomer, unassigned) [Example 13-4] | 3 | 0.05 | 86 | > 100 | – | –
7 | Nc1ncnc2c1ncn2[C@@H]1C[C@@H]2COP(O)(=S)O[C@H]3[C@H](F)[C@H](n4ccc5c(Cl)ncnc54)O[C@@H]3COP(O)(=S)OC[C@H]21 (single isomer, unassigned) [Example 7-3] | > 100 | 61.1 | > 100 | > 100 | – | –
8 | Nc1ncnc2c1ncn2[C@@H]1C[C@@H]2COP(=O)(S)O[C@H]3[C@@H](F)[C@H](n4cnc5c(N)ncnc54)O[C@@H]3COP(=O)(S)OC[C@H]21 (single isomer, unassigned) [Example 2-1] | 24 | 0.21 | > 100 | > 100 | – | –
9 | Nc1ncnc2c1ncn2[C@@H]1C[C@@H]2COP(O)(=S)O[C@@H]3[C@H](O)[C@@H](COP(O)(=S)OC[C@H]21)O[C@H]3n1cnc2c(N)ncnc21 (single isomer, unassigned) [Example 4-2] | 3.7 | 0.05 | 72 | 87 | – | –
10 | Nc1ncnc2c1ncn2[C@@H]1C[C@@H]2COP(=O)(S)O[C@H]3[C@@H](F)[C@H](n4cnc5c(N)ncnc54)O[C@@H]3COP(=O)(S)OC[C@H]21 (single isomer, unassigned) [Example 2-2] | 0.88 | 0.01 | 85 | > 100 | – | –
11 | Nc1ncnc2c1ncn2[C@@H]1C[C@@H]2COP(O)(=S)O[C@@H]3[C@H](O)[C@@H](COP(O)(=S)OC[C@H]21)O[C@H]3n1cnc2c(N)ncnc21 (single isomer, unassigned) [Example 4-1] | > 100 | 2.8 | – | – | > 100 | > 100
12 | Nc1ncnc2c1ncn2[C@@H]1C[C@@H]2COP(O)(=S)O[C@@H]3[C@H](O)[C@@H](COP(O)(=S)OC[C@H]21)O[C@H]3n1cnc2c(O)nc3nccn3c21 (single isomer, unassigned) [Example 15-2] | 26.9 | 1.8 | > 100 | > 100 | – | –
13 | NC(=O)c1cccc2c1nnn2[C@@H]1O[C@@H]2COP(O)(=S)OC[C@@H]3[C@@H](COP(O)(=S)O[C@@H]1[C@@H]2F)C[C@H]3n1cnc2c(N)ncnc21 (single isomer, unassigned) [Example 11-4] | 66.2 | 23.1 | > 100 | > 100 | – | –
14 | NC(=O)c1cccc2c1nnn2[C@@H]1O[C@@H]2COP(O)(=S)OC[C@@H]3[C@@H](COP(O)(=S)O[C@@H]1[C@@H]2F)C[C@H]3n1cnc2c(N)ncnc21 (single isomer, unassigned) [Example 11-1] | 20.5 | 3.1 | – | – | > 100 | > 100
15 | O=c1[nH]c2nccn2c2c1ncn2[C@@H]1O[C@@H]2COP(=O)(S)OC[C@@H]3[C@@H](COP(=O)(S)O[C@@H]1[C@@H]2O)C[C@H]3n1cnc2c(O)ncnc21 (single isomer, unassigned) [Example 14-2] | 25.5 | 5.1 | > 100 | > 100 | – | –
16 | NC(=O)c1cccc2c1nnn2[C@@H]1C[C@@H]2COP(O)(=S)O[C@H]3[C@@H](F)[C@H](n4cnc5c(N)ncnc54)O[C@@H]3COP(O)(=S)OC[C@H]21 (single isomer, unassigned) [Example 13-1] | > 100 | 85.1 | – | – | > 100 | > 100
17 | Nc1ncnc2c1ncn2[C@@H]1C[C@@H]2COP(O)(=S)O[C@@H]3[C@H](O)[C@@H](COP(O)(=S)OC[C@H]21)O[C@H]3n1cnc2c(O)nc3nccn3c21 (single isomer, unassigned) [Example 15-4] | 3.9 | 0.47 | > 100 | > 100 | – | –
18 | Nc1ncnc2c1ncn2[C@@H]1O[C@@H]2COP(O)(=S)OC[C@@H]3[C@@H](COP(O)(=S)O[C@H]2[C@H]1F)C[C@H]3n1cnc2c(O)nc3nccn3c21 (single isomer, unassigned) [Example 3-1] | 15 | 0.43 | > 100 | > 100 | – | –
19 | Nc1nc2c(ncn2[C@@H]2C[C@@H]3COP(O)(=S)O[C@H]4[C@@H](F)[C@H](n5cnc6c(N)ncnc65)O[C@@H]4COP(O)(=S)OC[C@H]32)c(=O)[nH]1 (single isomer, unassigned) [Example 18-2] | 0.15 | 0.02 | > 100 | > 100 | – | –
20 | O=c1[nH]c2nccn2c2c1ncn2[C@@H]1O[C@@H]2COP(=O)(S)OC[C@@H]3[C@@H](COP(=O)(S)O[C@@H]1[C@@H]2O)C[C@H]3n1cnc2c(O)ncnc21 (single isomer, unassigned) [Example 14-4] | 4.3 | 0.92 | > 100 | > 100 | – | –
